One compound from paper PMC6934184, “Selective DNA-PKcs inhibition extends the therapeutic index of localized radiotherapy and chemotherapy” (The Journal of Clinical Investigation, 2019) can be followed below.

This assay addresses T1, EPHB2 (Homo sapiens, UniProt P29323).
T1 construct: purchased Thermo Fisher Scientific (Life Technologies) SelectScreen
The assay can be described thus: SelectScreen Z'LYTE. The class given is biochemical. In a few lines:
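SelectScreen broad panel; activity (Z'LYTE, Adapta) plus binding formats. ATP: Km app for CSF1R Z'LYTE; 10 for CAMK1 Adapta. Readout = % per kinase.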

T1 sequence (P29323 19-1055): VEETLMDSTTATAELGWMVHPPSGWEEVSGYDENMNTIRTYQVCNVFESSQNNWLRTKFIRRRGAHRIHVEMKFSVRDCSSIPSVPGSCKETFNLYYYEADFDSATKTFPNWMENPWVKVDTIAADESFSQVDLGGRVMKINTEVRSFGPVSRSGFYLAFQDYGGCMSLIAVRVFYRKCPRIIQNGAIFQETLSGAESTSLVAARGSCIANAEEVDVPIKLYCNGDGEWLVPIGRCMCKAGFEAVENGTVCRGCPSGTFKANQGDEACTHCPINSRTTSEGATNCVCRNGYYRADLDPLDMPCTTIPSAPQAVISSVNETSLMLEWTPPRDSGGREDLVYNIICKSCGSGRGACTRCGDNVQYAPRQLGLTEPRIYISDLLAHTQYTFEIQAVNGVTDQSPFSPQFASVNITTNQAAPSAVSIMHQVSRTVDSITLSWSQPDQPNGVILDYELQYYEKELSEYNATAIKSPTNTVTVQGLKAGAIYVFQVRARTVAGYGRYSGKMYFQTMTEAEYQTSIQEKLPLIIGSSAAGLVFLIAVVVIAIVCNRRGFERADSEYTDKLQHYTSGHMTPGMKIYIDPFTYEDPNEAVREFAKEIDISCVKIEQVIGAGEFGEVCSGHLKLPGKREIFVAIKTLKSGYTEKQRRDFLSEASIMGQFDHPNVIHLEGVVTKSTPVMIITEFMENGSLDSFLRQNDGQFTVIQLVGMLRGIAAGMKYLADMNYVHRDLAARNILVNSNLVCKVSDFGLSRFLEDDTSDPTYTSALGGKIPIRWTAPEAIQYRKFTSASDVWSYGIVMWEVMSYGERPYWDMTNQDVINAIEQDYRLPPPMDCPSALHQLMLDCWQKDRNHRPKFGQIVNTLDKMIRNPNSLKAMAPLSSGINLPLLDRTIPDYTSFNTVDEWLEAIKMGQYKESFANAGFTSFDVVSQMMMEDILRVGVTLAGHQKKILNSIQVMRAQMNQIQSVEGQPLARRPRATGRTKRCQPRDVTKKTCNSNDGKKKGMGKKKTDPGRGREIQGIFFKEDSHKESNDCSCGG

Turning to `CN(C(=O)CN1CCOCC1)c1ccc2sc3c(-c4cccc5c(=O)cc(N6CC7CCC(C6)O7)oc45)cccc3c2c1` [NU5455], the inhibition at 1 µM was -0.1%.

Usually inhibition stands for the change of the read-out against control, counted positive when it falls.
